Reference: patent publication US7109175B1, “Specific steady-state R-type CA2+ channel blockers and use thereof” (Universite de Sherbrooke, priority 2000, dated 2006)
Entries after “also recorded” stand apart in the source; their conditions may differ.

Tests used:
[1] = test system: PAF-induced arterial vasodilatation and venconstriction; test: Double-perfused mesenteric bed of the rat
Description: The inhibitory properties of MV8608 are specific for PAF as the response to ACh (arterial) and AngII (venous) are unaffected by the pregnane-containing moiety.

[2] = test system: contraction of rat uterus induced by BK; conditions: Calixto et al. 1987; cited from earlier work
[3] = test system: R-type Ca^2+ channel; test: Fura-2 [Ca]i, freshly isolated human aortic endothelial cells; assay type: cell-based; conditions: 10^−9M
Description: This sustained increase of Ca^2+ induced by depolarization of the cell membrane or hormones such as PAF, ET-1 and bradykinin is due to the increase of Ca^2+ influx through the R-type Ca^2+ channels at the sarcolemmal membrane and/or the nuclear membrane (Bkaily G., 1994, supra; 1996, supra; 1997a–d, supra). Using Ca^2+ fluorescence probes Fura-2 or Fluo-3 and 2 and three-dimension Ca^2+ imaging techniques (Bkaily G., 1994, supra; 1996, supra; 1997a–d, supra), the effect of hormones and drugs could be easily tested. These two methods are used with single cells of different types as described above.
(§1) In another series of experiments we tested the effect of MV8608 (10^−9M) on R-type Ca^2+ channels stimulation-induced sustained increase of total intracellular Ca^2+ by sustained depolarization (FIGS. 15 to 19), by PAF (10^−9M) (FIGS. 16 to 19 and 21 to 22), by ET-1 (10^−9M) (FIGS. 16 and 19) and bradykinin (BK, 10^−6M) (FIGS. 20 and 21), in embryonic chick heart cells (FIGS. 15, 16, 19 and 20), 19-week-old human fetal heart cells (FIGS. 15, 17, 18 and 20), rabbit aortic vascular smooth muscle (VSM) cells (FIGS. 20 and 21), human aortic VSM cell-line (FIG. 23) and freshly isolated (FIG. 22) as well as in freshly isolated aortic endothelial cells (FIG. 22).

[4] = test system: R-type Ca^2+ channel; test: Fura-2 [Ca]i, human fetal heart cells; assay type: cell-based; conditions: 10^−9M, KCl 30 mM, PAF 10^−9M
Description: These two methods are used with single cells of different types as described above.
as §1

[5] = test system: L-type Ca^2+ current; test: Whole-cell voltage clamp, L-type Ca2+ current in heart cells of chick embryos; assay type: cell-based; conditions: for overall effect on L-type Ca2+ channel: summary in words
Protocol: (§2) Single cells of different types in culture were prepared from biopsies of human, chick and rabbit. Known and accepted methods for the isolation of fast Na^+ current, T, L and R-type Ca^2+ channels as well as delayed outward K^+ current were used (Bkaily 1994, supra).
(§3) The compounds to be tested are added to the appropriate extracellular solution after recording a stable ionic current or normal steady-state level of […]. The effect of different concentrations of compounds are tested on the different type of current and [Ca]i of the different cell types. The effect of each concentration of the compounds in function of the time of exposure are then determined. Once the steady-state effect is reached, the second concentration is added, etc.
In another series of experiments (n=5), the effect of different concentrations of MV8608 (10^−11 to 10^−6M) were tested on the L-type ICa of heart cells of chick embryos using the whole-cell and experimental conditions and protocols described elsewhere by the inventors (Bkaily G. et al., 1993, supra). As for the T-type ICa, the L-type ICa was not affected by 10^−11 to 10^−10M MV8608.
In another series of experiments (n=4), we tested the effect of MV8612 on the L-type Ca^2+ current (ICa) in chick embryonic heart cells using the whole-cell voltage clamp technique referred to above. Superfusion with 10^−9M of MV8612 decreased ICa amplitude by 10% and increasing the concentration of the compound up to 10^−8M further decreased the current amplitude by 25%. Higher concentration of MV8612 (10^−7M) decreased the ICa amplitude by 62%.

[6] = test system: T-type Ca^2+ current; test: Whole-cell voltage clamp, T-type Ca2+ current in heart cells; assay type: cell-based
Protocol: as §2, §3
In another series of experiments (n=7), the effect of different concentrations of MV8608 were tested on the T-type Ca^2+ current (ICa) using the whole-cell voltage clamp technique and classical experimental conditions described elsewhere by the inventors (Bkaily G. et al., 1991, supra; 1992, supra; 1993, supra). […] As it can be seen in that figure, the inset effect of MV8608 in T-type ICa is immediate.

[7] = test system: pleurisy in mice; test: Murine model of pleurisy; assay type: in vivo; conditions: for neutrophil cells, carrageenan pleurisy / total cells, carrageenan pleurisy: MV 8612 30 and 60, MV 8608 30, i.p.
Protocol: To assess further the anti-inflammatory action of MV 8612 and MV 8608, their effects against the inflammatory responses caused by several mediators of inflammation in a murine model of pleurisy were tested (Saleh et al., 1996, Br. J. Pharmacol. 118:811–819). In addition, both compounds were tested against the increase of vascular permeability caused by bradykinin in the rat skin (Neves et al., 1993b, Phytotherapy Research. 7:356–362).

[8] = test system: anaesthetized rat; test: Anaesthetized rat, blood pressure and PAF hypotension; assay type: in vivo; conditions: anaesthetized rat
Description: (§4) On the other hand, in vivo administered PAF, induced a marked hypotension in the anaesthetized rat and guinea pig.

[9] = test system: anaesthetized guinea pig; test: Anaesthetized guinea pig, PAF bronchoconstriction and hypotension; assay type: in vivo
Description: as §4

[10] = test system: tail-flick; test: Tail-flick in mice; assay type: in vivo; conditions: i.p.

**Q.** With `C[C@]12CC[C@H](O)CC1=CC[C@@H]1[C@@H]2CC[C@]2(C)[C@H]3[C@@H]4OC[C@H]3O[C@@H](O)[C@]12O4` [MV8608, (15R, 16R, 20S)-14, 16:15,20:16,21-triepoxi-15,16-seco 14β, 17α-pregn-5-ene-3β, 15-diol] as the compound, how does the “response to ACh (arterial) and AngII (venous)” value [1] read?
**A.** unaffected

**Q.** And the “PAF-induced responses (arterial vasodilatation, venconstriction)” value ([1]; 1 μM in FIG. 24)?
**A.** concentration-dependent inhibition; also recorded: blocked PAF

**Q.** What about the “inhibition of BK-induced contraction of rat uterus” value [2] of the same compound?
**A.** selective in its ability to inhibit the contraction of rat uterus induced by BK

**Q.** What about the “basal [Ca]i” value [3] of the same compound?
**A.** decrease of basal sustained increase of [Ca]i

**Q.** What about the “sustained increase of [Ca]i” value [4] of the same compound?
**A.** blockade

**Q.** What about the “change of L-type ICa amplitude effect at higher concentration” value ([5]; 5×10^−7M) of the same compound?
**A.** further slight increase

**Q.** What about the “decrease of L-type ICa amplitude” value ([5]; 10^−9M) of the same compound?
**A.** 10%

**Q.** And the “effect on L-type ICa” value ([5]; 10^−11 to 10^−10M)?
**A.** not affected

**Q.** And the “overall effect on L-type Ca2+ channel” value [5]?
**A.** very weak depressor; also recorded: relative weak depressing effect

**Q.** And the “overall effect on T-type ICa” value ([6]; 10^−9M and 10^−7M, heart cells)?
**A.** very weak depressor; also recorded: relative weak depressing effect

**Q.** What about the “effect on T-type ICa amplitude” value ([6]; 10^−9M to 10^−7M, n=7) of the same compound?
**A.** had no effect

**Q.** What about the “mononuclear cells influx, PAF pleurisy” value ([7]; 30, i.p.) of the same compound?
**A.** antagonised significantly

**Q.** What about the “plasma extravasation, PAF pleurisy” value ([7]; 30, i.p.) of the same compound?
**A.** antagonised significantly

**Q.** And the “neutrophil cells, carrageenan pleurisy” value [7]?
**A.** inhibited significantly

**Q.** And the “total cells, carrageenan pleurisy” value [7]?
**A.** inhibited significantly

**Q.** For `COC1CC(OC2C(C)OC(O[C@H]3CC[C@@]4(C)C(=CC[C@@H]5[C@@H]4CC[C@]4(C)[C@H]6[C@@H]7OC[C@H]6O[C@@H](O)[C@]54O7)C3)CC2OC)OC(C)C1OC1CC(OC)C(OC2CC(OC)C(OC3OC(C)C(OC(C)=O)C(OC)C3OC(C)=O)C(C)O2)C(C)O1` (some centres unmarked) [MV8612], which “hypotensive effect of PAF” value [8] is on record?
**A.** Identical inhibition

**Q.** What about the intrinsic hypotensive effect ([9]; guinea pig) of the same compound?
**A.** devoid of marked intrinsic effect

**Q.** What about the “bronchoconstrictive responses to PAF” value ([9]; pretreatment) of the same compound?
**A.** abolishes

**Q.** And the “hypotensive effects of PAF” value ([9]; pretreatment)?
**A.** very significantly reduced; also recorded: abolishes

**Q.** What about the “hypotensive effect of PAF after withdrawal of treatment” value ([9]; same animal) of the same compound?
**A.** fully restored

**Q.** And the “ID50 TAIL-FLICK” value [10]?
**A.** no effect

**Q.** What about the “decrease of L-type ICa amplitude” value ([5]; 10^−7M) of the same compound?
**A.** 62%

**Q.** What about the “decrease of L-type ICa amplitude” value ([5]; 10^−8M) of the same compound?
**A.** 25%

**Q.** What about the “decrease of L-type ICa amplitude” value ([5]; 10^−9M) of the same compound?
**A.** 10%

**Q.** And the “overall effect on L-type Ca2+ channel” value [5]?
**A.** more potent L-type Ca^2+ channel antagonist properties than that of MV8608

**Q.** What about the “plasma extravasation, carrageenan pleurisy” value ([7]; 30 and 60, i.p., 1 h prior) of the same compound?
**A.** significantly inhibited

**Q.** And the “neutrophil cells, carrageenan pleurisy” value [7]?
**A.** significantly inhibited

**Q.** And the “total cells, carrageenan pleurisy” value [7]?
**A.** significantly inhibited

**Q.** And the “inflammatory response caused by PAF acether” value ([7]; same range of dose, i.p.)?
**A.** did not affect significantly
